In ChEMBL document CHEMBL1201862, “PubChem BioAssay data set” (2004):
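Method: 48-hour compound exposure of cells in 96-well plates, five concentrations, linear interpolation of endpoints. The concentration for 50% growth inhibition is given as GI50.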 Calls of active or inactive are those of the source. No stated cut-off is given here; in the data, active = GI50 up to about 1.1 µM and inactive = higher.

Experiments:
Test in all cases: DTP human tumour cell line panel, 48 h
786-0 = test system: 786-0
A549 = test system: A549
ACHN = test system: ACHN
CAKI-1 = test system: CAKI-1
CCRF-CEM = test system: CCRF-CEM
COLO 205 = test system: COLO 205
DLD-1 = test system: DLD-1
DMS-114 = test system: DMS-114
EKVX = test system: EKVX
HCT-116 = test system: HCT-116
HCT-15 = test system: HCT-15
HL-60 = test system: HL-60
HOP-62 = test system: HOP-62
HOP-92 = test system: HOP-92
HT-29 = test system: HT-29
IGROV-1 = test system: IGROV-1
K562 = test system: K562
KM-20L2 = test system: KM-20L2
KM12 = test system: KM12
LXFL 529 = test system: LXFL 529
M14 = test system: M14
M19-MEL = test system: M19-MEL
MOLT-4 = test system: MOLT-4
NCI-H226 = test system: NCI-H226
NCI-H23 = test system: NCI-H23
NCI-H460 = test system: NCI-H460
NCI-H522 = test system: NCI-H522
OVCAR-3 = test system: OVCAR-3
OVCAR-4 = test system: OVCAR-4
OVCAR-8 = test system: OVCAR-8
RPMI-8226 = test system: RPMI-8226
RXF 393 = test system: RXF 393
SF-268 = test system: SF-268
SF-295 = test system: SF-295
SF-539 = test system: SF-539
SK-MEL-28 = test system: SK-MEL-28
SK-MEL-2 = test system: SK-MEL-2
SK-MEL-5 = test system: SK-MEL-5
SK-OV-3 = test system: SK-OV-3
SN12C = test system: SN12C
SNB-75 = test system: SNB-75
SR = test system: SR
SW-620 = test system: SW-620
TK-10 = test system: TK-10
U-251 = test system: U-251
UACC-257 = test system: UACC-257
UACC-62 = test system: UACC-62
XF498 = test system: XF498
A498 = test system: A498
DMS-273 = test system: DMS-273
HCC 2998 = test system: HCC 2998
LOX IMVI = test system: LOX IMVI
OVCAR-5 = test system: OVCAR-5
SNB-19 = test system: SNB-19
UO-31 = test system: UO-31
BT-549 = test system: BT-549
DU-145 = test system: DU-145
Hs-578T = test system: Hs-578T
MCF7 = test system: MCF7
MDA-MB-231 = test system: MDA-MB-231
MDA-MB-435 = test system: MDA-MB-435
MDA-N = test system: MDA-N
Malme-3M = test system: Malme-3M
NCI/ADR-RES = test system: NCI/ADR-RES
PC-3 = test system: PC-3
T47D = test system: T47D

Measured: GI50

COc1cccc(OC)c1C(=O)OCc1ccccc1
> 100 µM: HCT-15
inactive: 786-0 > 100 µM | A549 > 100 µM | ACHN > 100 µM | CAKI-1 > 100 µM | CCRF-CEM > 100 µM | COLO 205 > 100 µM | DLD-1 > 100 µM | DMS-114 > 100 µM | EKVX > 100 µM | HCT-116 > 100 µM | HL-60 > 100 µM | HOP-62 > 100 µM | HOP-92 > 100 µM | HT-29 > 100 µM | IGROV-1 > 100 µM | K562 > 100 µM | KM-20L2 > 100 µM | KM12 > 100 µM | LXFL 529 > 100 µM | M14 > 100 µM | M19-MEL > 100 µM | MOLT-4 > 100 µM | NCI-H226 > 100 µM | NCI-H23 > 100 µM | NCI-H460 > 100 µM | NCI-H522 > 100 µM | OVCAR-3 > 100 µM | OVCAR-4 > 100 µM | OVCAR-8 > 100 µM | RPMI-8226 > 100 µM | RXF 393 > 100 µM | SF-268 > 100 µM | SF-295 > 100 µM | SF-539 > 100 µM | SK-MEL-28 > 100 µM | SK-MEL-2 > 100 µM | SK-MEL-5 > 100 µM | SK-OV-3 > 100 µM | SN12C > 100 µM | SNB-75 > 100 µM | SR > 100 µM | SW-620 > 100 µM | TK-10 > 100 µM | U-251 > 100 µM | UACC-257 > 100 µM | UACC-62 > 100 µM | XF498 > 100 µM

Cc1cc(NCCCCCCCCNc2cc(C)nc3cc(N)ccc23)c2ccc(N)cc2n1
active: HL-60 0.566 µM
41.5 µM: HCT-15
inactive: 786-0 18.9 µM | A498 39.6 µM | A549 18.3 µM | ACHN 37.7 µM | CAKI-1 46.8 µM | CCRF-CEM 3.13 µM | COLO 205 6.4 µM | DLD-1 16.9 µM | DMS-114 3.35 µM | DMS-273 4.56 µM | EKVX 22.2 µM | HCC 2998 15.1 µM | HOP-62 26.9 µM | HT-29 21.8 µM | K562 1.95 µM | KM-20L2 19 µM | KM12 12.5 µM | LOX IMVI 17.1 µM | LXFL 529 11.3 µM | M14 16.7 µM | M19-MEL 15.5 µM | MOLT-4 > 100 µM | NCI-H226 24.4 µM | NCI-H23 14.3 µM | NCI-H460 15.7 µM | NCI-H522 3.78 µM | OVCAR-3 14.9 µM | OVCAR-4 17.3 µM | OVCAR-5 22.5 µM | OVCAR-8 17.2 µM | RPMI-8226 6.68 µM | RXF 393 27.7 µM | SF-268 26.2 µM | SF-295 18.2 µM | SF-539 17 µM | SK-MEL-28 19.9 µM | SK-MEL-2 13.6 µM | SK-MEL-5 10.9 µM | SK-OV-3 38.5 µM | SN12C 15.8 µM | SNB-19 14.1 µM | SNB-75 16.4 µM | SR 10.9 µM | TK-10 44.9 µM | U-251 8.57 µM | UACC-257 12.7 µM | UACC-62 17 µM | UO-31 > 100 µM

CCc1nc(N)nc(N)c1-c1ccc(N(C)Cc2ccccc2)c([N+](=O)[O-])c1
inactive: BT-549 4.9 µM | EKVX 1.16 µM | Hs-578T 10.2 µM | MDA-MB-231 7.67 µM | Malme-3M 2.22 µM | NCI-H226 3.31 µM | NCI-H522 1.15 µM | OVCAR-4 5.15 µM | OVCAR-5 8.17 µM | RXF 393 3.61 µM | SK-MEL-28 4.79 µM | SK-MEL-2 7.74 µM | SK-OV-3 7.62 µM | SN12C 1.34 µM | SNB-75 2.22 µM | T47D 1.71 µM | TK-10 7.13 µM | UACC-257 2.58 µM
active: 786-0 0.0231 µM | A498 0.552 µM | A549 < 0.01 µM | ACHN 0.0342 µM | CAKI-1 0.0706 µM | CCRF-CEM 0.0237 µM | COLO 205 0.522 µM | DU-145 0.215 µM | HCC 2998 0.345 µM | HCT-116 < 0.01 µM | HL-60 < 0.01 µM | HOP-62 0.13 µM | HOP-92 0.962 µM | HT-29 0.0191 µM | IGROV-1 0.128 µM | K562 < 0.01 µM | KM12 0.191 µM | LOX IMVI < 0.0114 µM | M14 0.064 µM | MCF7 0.202 µM | MDA-MB-435 0.0811 µM | MDA-N 0.0243 µM | MOLT-4 0.059 µM | NCI-H23 0.0708 µM | NCI-H460 < 0.01 µM | NCI/ADR-RES 0.184 µM | OVCAR-3 0.697 µM | OVCAR-8 0.0466 µM | PC-3 0.0557 µM | RPMI-8226 0.191 µM | SF-268 0.303 µM | SF-295 0.0522 µM | SF-539 0.14 µM | SK-MEL-5 0.022 µM | SNB-19 0.745 µM | SR 0.0187 µM | SW-620 0.0155 µM | U-251 0.0374 µM | UACC-62 0.0357 µM | UO-31 0.458 µM
< 0.01 µM: HCT-15

CN(C)CC1CCC/C(=C\c2ccc(OC(=O)/C=C/c3ccc(Cl)cc3)cc2)C1=O (stereo not given)
inactive: A498 8.53 µM | A549 8.49 µM | ACHN 2.43 µM | CAKI-1 2.62 µM | DU-145 5.2 µM | EKVX 7.14 µM | HCC 2998 5.43 µM | HCT-116 3.56 µM | HOP-62 6.25 µM | HOP-92 1.57 µM | HT-29 2.07 µM | Hs-578T 4.92 µM | IGROV-1 1.43 µM | K562 1.23 µM | KM12 1.47 µM | LOX IMVI 1.58 µM | M14 6.1 µM | MDA-MB-231 5.21 µM | MDA-MB-435 5.28 µM | MDA-N 6.9 µM | Malme-3M 9.06 µM | NCI-H226 11 µM | NCI-H23 6.65 µM | NCI-H460 8.02 µM | NCI/ADR-RES 7.43 µM | OVCAR-3 4.97 µM | OVCAR-4 12.5 µM | OVCAR-5 16.7 µM | OVCAR-8 5.62 µM | PC-3 5.35 µM | RXF 393 1.32 µM | SF-268 4.09 µM | SF-295 7.6 µM | SF-539 2.57 µM | SK-MEL-28 6.14 µM | SK-MEL-2 9.82 µM | SK-MEL-5 2.16 µM | SK-OV-3 21.3 µM | SN12C 3.92 µM | SNB-19 8.43 µM | SNB-75 8.93 µM | SW-620 1.69 µM | T47D 1.15 µM | TK-10 1.31 µM | U-251 3.13 µM | UACC-257 11.5 µM | UACC-62 8.81 µM | UO-31 4.99 µM
2.01 µM: HCT-15
active: 786-0 1.07 µM | BT-549 0.217 µM | CCRF-CEM 1.06 µM | COLO 205 0.78 µM | HL-60 1.07 µM | MCF7 1.08 µM | MOLT-4 1.05 µM | NCI-H522 0.916 µM | RPMI-8226 0.294 µM | SR 1.09 µM

CN(C)CCn1c(=O)c2ccc(NCCCN(C)CCCNc3ccc4c(=O)n(CCN(C)C)c(=O)n5c6ccc([N+](=O)[O-])cc6c(=O)c3c45)c3c(=O)c4cc([N+](=O)[O-])ccc4n(c1=O)c23
< 0.015 µM: HCT-15
active: 786-0 < 0.01 µM | A498 0.0478 µM | A549 < 0.01 µM | ACHN < 0.01 µM | BT-549 0.0376 µM | CAKI-1 < 0.033 µM | CCRF-CEM < 0.01 µM | COLO 205 < 0.01 µM | DU-145 < 0.01 µM | EKVX 0.0411 µM | HCC 2998 < 0.01 µM | HCT-116 < 0.01 µM | HL-60 < 0.027 µM | HOP-62 < 0.01 µM | HOP-92 < 0.0354 µM | HT-29 < 0.01 µM | Hs-578T 0.0178 µM | IGROV-1 < 0.01 µM | K562 < 0.01 µM | KM12 < 0.01 µM | LOX IMVI < 0.01 µM | M14 0.057 µM | MCF7 < 0.01 µM | MDA-MB-231 < 0.021 µM | MDA-MB-435 < 0.0173 µM | MDA-N 0.0248 µM | MOLT-4 < 0.01 µM | Malme-3M 0.0594 µM | NCI-H226 < 0.01 µM | NCI-H23 < 0.01 µM | NCI-H460 < 0.01 µM | NCI-H522 < 0.01 µM | NCI/ADR-RES 0.0802 µM | OVCAR-3 < 0.033 µM | OVCAR-4 < 0.01 µM | OVCAR-5 < 0.037 µM | OVCAR-8 < 0.01 µM | PC-3 < 0.01 µM | RPMI-8226 < 0.01 µM | RXF 393 0.0122 µM | SF-268 0.0163 µM | SF-295 0.0136 µM | SF-539 < 0.01 µM | SK-MEL-28 0.0664 µM | SK-MEL-2 0.0346 µM | SK-MEL-5 < 0.0115 µM | SK-OV-3 < 0.0258 µM | SN12C < 0.01 µM | SNB-19 < 0.01 µM | SNB-75 < 0.01 µM | SR < 0.01 µM | SW-620 < 0.0112 µM | T47D 0.0968 µM | TK-10 < 0.0143 µM | U-251 < 0.01 µM | UACC-257 0.069 µM | UACC-62 < 0.0246 µM | UO-31 0.0129 µM
